Measurements taken from patent US20220401514A1, “ANTIMICROBIAL, BACTERIOPHAGE-DERIVED POLYPEPTIDES AND THEIR USE AGAINST GRAM-NEGATIVE AND ACID-FAST BACTERIA” (CONTRAFECT CORPORATION, priority 2019, published 2022).

Key:
[1] = tested on: P. aeruginosa strain CFS-1292; experiment: Checkerboard assay (FICI) with antibiotics, P. aeruginosa; type: cell-based, Pseudomonas aeruginosa; details: for Antibiotic FIC: P. aeruginosa CFS-1292; for Antibiotic MIC in checkerboard: P. aeruginosa CFS-1292, CAA + […] human serum
Method: Any known method to assess MIC may be used.
Checkerboards are constructed by first preparing columns of e.g., a 96-well polypropylene microtiter plate, wherein each well has the same amount of antibiotic diluted 2-fold along the horizontal axis. […] Bacteria are added to the drug combinations at concentrations of 1×10^5 […] in CAA, for example, with or without human serum or pulmonary surfactant. […] Summation fractional inhibitory concentrations (ΣFICs) are calculated for each drug and the minimum ΣFIC value (ΣFICmin) is used to determine the effect of the Chp peptide/antibiotic combination.
(§1) Checkerboard assays. […] Checkerboards were constructed by first preparing columns of a 96-well polypropylene microtiter plate, in which each well had the same amount of antibiotic diluted 2-fold along the horizontal axis. […] Summation fractional inhibitory concentration index (FICIs) were calculated for each drug and the minimum FICI was used to determine synergy. FICIs were calculated as follows: FICI=FIC A+FIC B, where FIC A is the MIC of each antibiotic in the combination/MIC of the each antibiotic alone, and FIC B is the MIC of each Chp peptide in the combination/MIC of each Chp peptide alone. The combination is considered synergistic when the FICI is ≤0.5, strongly additive when the FICI is >0.5 to <1, additive with the FICI is 1-<2, and antagonistic when the FICI is ≥2.
In the checkerboard assay, fractional inhibitory concentration index (FICI) values are calculated.

[2] = tested on: Klebsiella pneumoniae strain 1139; experiment: Checkerboard assay (FICI) with antibiotics, K. pneumoniae; type: cell-based
Method: as §1

[3] = tested on: Acinetobacter baumannii strain 30; experiment: Checkerboard assay (FICI) with antibiotics, A. baumannii; type: cell-based; details: checkerboard
Method: as §1
The results are shown below in Tables 22-27.

[4] = tested on: carbapenem-resistant P. aeruginosa clinical isolate CFS-1292; experiment: MIC by modified CLSI broth microdilution against P. aeruginosa CFS-1292 (CAA, CAA + human serum); type: cell-based, Pseudomonas aeruginosa; details: for MIC (μg/mL) against CFS-1292 in 100% CAA (1st run/2nd run): 1st run or single value
M. smegmatis = experiment: 45 hr MIC against M. smegmatis (NTM), Mueller Hinton broth; type: cell-based, Mycobacterium smegmatis; details: M. smegmatis MC^2 155, Run #1
[5] = checkerboard, in combination with Chp4-M1
[6] = checkerboard, in combination with Chp6-M1
[7] = checkerboard, in combination with Chp10-M1
[8] = checkerboard, in combination with Unp2-M1

## C[C@H]1COc2c(N3CCN(C)CC3)c(F)cc3c(=O)c(C(=O)O)cn1c23 [Levofloxacin]
[1]; combined with Chp2-M1
  Antibiotic FIC: 0.25
[1]; combined with Chp2
  Antibiotic FIC: 0.25
[1]; combined with Chp4-M1
  Antibiotic FIC: 0.5
[1]; combined with Chp6-M1
  Antibiotic FIC: 0.25
[1]; combined with Chp10-M1
  Antibiotic FIC: 0.25
[1]; combined with Unp2-M1
  Antibiotic FIC: 0.25
[2]; [5]
  Antibiotic FIC: 0.25
  Antibiotic MIC: 0.007812 µg/mL
[2]; [6]
  Antibiotic FIC: 0.25
  Antibiotic MIC: 0.007812 µg/mL
[2]; [7]
  Antibiotic FIC: 0.125
  Antibiotic MIC: 0.007812 µg/mL
[2]; [8]
  Antibiotic FIC: 0.01562
  Antibiotic MIC: 0.01562 µg/mL
[2]; combined with Chp2
  Antibiotic FIC: 0.25
  Antibiotic MIC in checkerboard: 0.007812 µg/mL
[2]; combined with Chp2-M1
  Antibiotic FIC: 0.25
  Antibiotic MIC in checkerboard: 0.007812 µg/mL
[3]; in combination with Chp2
  Antibiotic FIC: 0.25
[3]; in combination with Chp2-M1
  Antibiotic FIC: 0.25
[3]; in combination with Chp4-M1
  Antibiotic FIC: 0.25
[3]; in combination with Chp6-M1
  Antibiotic FIC: 0.25
[3]; in combination with Chp10-M1
  Antibiotic FIC: 0.25
[3]; in combination with Unp2-M1
  Antibiotic FIC: 0.25

## CC[C@H]1OC(=O)[C@H](C)[C@@H](O[C@H]2C[C@@](C)(OC)[C@@H](O)[C@H](C)O2)[C@H](C)[C@@H](O[C@@H]2O[C@H](C)C[C@H](N(C)C)[C@H]2O)[C@](C)(O)C[C@@H](C)CN(C)[C@H](C)[C@@H](O)[C@]1(C)O [Azithromycin]
[1]; combined with Chp2
  Antibiotic FIC: 0.25
[1]; combined with Chp4-M1
  Antibiotic FIC: 0.25
[1]; combined with Chp6-M1
  Antibiotic FIC: 0.25
[2]; [5]
  Antibiotic FIC: 0.25
  Antibiotic MIC: 1 µg/mL
[2]; [6]
  Antibiotic FIC: 0.5
  Antibiotic MIC: 1 µg/mL
[2]; [7]
  Antibiotic MIC: 1 µg/mL
[2]; [8]
  Antibiotic MIC: 1 µg/mL
[2]; combined with Chp2
  Antibiotic MIC in checkerboard: 1 µg/mL
[2]; combined with Chp2-M1
  Antibiotic FIC: 0.25
  Antibiotic MIC in checkerboard: 1 µg/mL
[3]; in combination with Chp2
  Antibiotic FIC: 0.5
  Antibiotic MIC: 0.5 µg/mL
[3]; in combination with Chp2-M1
  Antibiotic FIC: 0.25
  Antibiotic MIC: 0.5 µg/mL
[3]; in combination with Chp4-M1
  Antibiotic FIC: 0.25
  Antibiotic MIC: 0.5 µg/mL
[3]; in combination with Chp6-M1
  Antibiotic FIC: 0.25
  Antibiotic MIC: 0.5 µg/mL
[3]; in combination with Chp10-M1
  Antibiotic FIC: 0.5
  Antibiotic MIC: 0.5 µg/mL
[3]; in combination with Unp2-M1
  Antibiotic FIC: 0.5
  Antibiotic MIC: 0.5 µg/mL

## MRKKMHKSLDKRVFNRTAKKSKKINVNPVVYRGGIRL [CDL907]
[4]
  MIC (μg/mL) against CFS-1292 in 100% CAA (1st run/2nd run): 8 µg/mL
  MIC (μg/mL) against CFS-1292 in CAA + […] human serum: 0.5 µg/mL
M. smegmatis
  45 hr MIC: >128 µg/mL

## Gentamicin
[1]; combined with Chp2
  Antibiotic FIC: 0.5
[1]; combined with Unp2-M1
  Antibiotic FIC: 0.25
[3]; in combination with Chp2
  Antibiotic FIC: 0.25
  Antibiotic MIC: 0.03125 µg/mL
[3]; in combination with Chp2-M1
  Antibiotic FIC: 0.5
  Antibiotic MIC: 0.03125 µg/mL
[3]; in combination with Chp4-M1
  Antibiotic FIC: 0.5
  Antibiotic MIC: 0.03125 µg/mL
[3]; in combination with Chp6-M1
  Antibiotic FIC: 0.5
  Antibiotic MIC: 0.03125 µg/mL
[3]; in combination with Chp10-M1
  Antibiotic FIC: 0.01562
  Antibiotic MIC: 0.0009766 µg/mL
[3]; in combination with Unp2-M1
  Antibiotic FIC: 0.5
  Antibiotic MIC: 0.03125 µg/mL

## MKKRTKALLPYAVFIILSFQLTLLTALFMYYHYTF [Lvp2]
[4]
  MIC (μg/mL) against CFS-1292 in 100% CAA (1st run/2nd run): 32 µg/mL
  MIC (μg/mL) against CFS-1292 in CAA + […] human serum: 8 µg/mL

## NCC[C@H](O)C(=O)N[C@@H]1C[C@H](N)[C@@H](O[C@H]2O[C@H](CN)[C@@H](O)[C@H](O)[C@H]2O)[C@H](O)[C@H]1O[C@H]1O[C@H](CO)[C@@H](O)[C@H](N)[C@H]1O [Amikacin]
[1]; combined with Chp2-M1
  Antibiotic FIC: 0.25
  Antibiotic MIC in checkerboard: 0.5 µg/mL
[1]; combined with Chp2
  Antibiotic FIC: 0.25
  Antibiotic MIC in checkerboard: 0.5 µg/mL
[1]; combined with Chp4-M1
  Antibiotic FIC: 0.0625
[1]; combined with Chp6-M1
  Antibiotic FIC: 0.25
  Antibiotic MIC in checkerboard: 0.5 µg/mL
[1]; combined with Chp10-M1
  Antibiotic FIC: 0.125
  Antibiotic MIC in checkerboard: 0.25 µg/mL
[1]; combined with Unp2-M1
  Antibiotic FIC: 0.25
  Antibiotic MIC in checkerboard: 0.5 µg/mL
[3]; in combination with Chp2
  Antibiotic FIC: 0.25
[3]; in combination with Chp2-M1
  Antibiotic FIC: 0.5
[3]; in combination with Chp4-M1
  Antibiotic FIC: 0.5
[3]; in combination with Chp6-M1
  Antibiotic FIC: 0.5
[3]; in combination with Chp10-M1
  Antibiotic FIC: 0.5
[3]; in combination with Unp2-M1
  Antibiotic FIC: 0.5

## CCN1CCN(C(=O)N[C@@H](C(=O)N[C@@H]2C(=O)N3[C@@H]2SC(C)(C)[C@@H]3C(=O)O)c2ccccc2)C(=O)C1=O [Piperacillin]
[1]; combined with Chp2-M1
  Antibiotic FIC: 0.125
  Antibiotic MIC in checkerboard: 1 µg/mL
[1]; combined with Chp2
  Antibiotic FIC: 0.5
  Antibiotic MIC in checkerboard: 4 µg/mL
[1]; combined with Chp4-M1
  Antibiotic FIC: 0.5
  Antibiotic MIC in checkerboard: 8 µg/mL
[1]; combined with Chp6-M1
  Antibiotic FIC: 0.25
  Antibiotic MIC in checkerboard: 2 µg/mL
[1]; combined with Chp10-M1
  Antibiotic FIC: 0.25
  Antibiotic MIC in checkerboard: 2 µg/mL
[1]; combined with Unp2-M1
  Antibiotic FIC: 0.25
  Antibiotic MIC in checkerboard: 2 µg/mL
[3]; in combination with Chp2
  Antibiotic FIC: 0.25
  Antibiotic MIC: 8 µg/mL
[3]; in combination with Chp2-M1
  Antibiotic FIC: 0.25
  Antibiotic MIC: 8 µg/mL
[3]; in combination with Chp4-M1
  Antibiotic FIC: 0.25
  Antibiotic MIC: 8 µg/mL
[3]; in combination with Chp6-M1
  Antibiotic FIC: 0.5
  Antibiotic MIC: 16 µg/mL
[3]; in combination with Chp10-M1
  Antibiotic FIC: 0.25
  Antibiotic MIC: 4 µg/mL
[3]; in combination with Unp2-M1
  Antibiotic FIC: 0.25
  Antibiotic MIC: 8 µg/mL

## C[C@H]1[C@H](NC(=O)/C(=N\OC(C)(C)C(=O)O)c2csc(N)n2)C(=O)N1S(=O)(=O)O [Aztreonam]
[1]; combined with Chp2-M1
  Antibiotic FIC: 0.5
[1]; combined with Chp2
  Antibiotic FIC: 0.25
[1]; combined with Chp4-M1
  Antibiotic FIC: 0.25
[1]; combined with Chp6-M1
  Antibiotic FIC: 0.25
[1]; combined with Chp10-M1
  Antibiotic FIC: 0.25
[2]; [5]
  Antibiotic FIC: 0.5
  Antibiotic MIC: 0.007812 µg/mL
[2]; [6]
  Antibiotic FIC: 0.25
  Antibiotic MIC: 0.007812 µg/mL
[2]; [7]
  Antibiotic FIC: 0.25
  Antibiotic MIC: 0.007812 µg/mL
[2]; [8]
  Antibiotic FIC: 0.007812
  Antibiotic MIC: 0.007812 µg/mL
[2]; combined with Chp2
  Antibiotic FIC: 0.5
  Antibiotic MIC in checkerboard: 0.007812 µg/mL
[2]; combined with Chp2-M1
  Antibiotic FIC: 0.5
  Antibiotic MIC in checkerboard: 0.007812 µg/mL
[3]; in combination with Chp2
  Antibiotic FIC: 0.25
  Antibiotic MIC: 8 µg/mL
[3]; in combination with Chp2-M1
  Antibiotic FIC: 0.25
  Antibiotic MIC: 8 µg/mL
[3]; in combination with Chp4-M1
  Antibiotic FIC: 0.25
  Antibiotic MIC: 16 µg/mL
[3]; in combination with Chp6-M1
  Antibiotic FIC: 0.25
  Antibiotic MIC: 8 µg/mL
[3]; in combination with Chp10-M1
  Antibiotic FIC: 0.25
  Antibiotic MIC: 8 µg/mL
[3]; in combination with Unp2-M1
  Antibiotic FIC: 0.25
  Antibiotic MIC: 16 µg/mL
